Results on 16 compounds are retold here after patent publication US6984649B1, “Pyridine derivatives” (Bayer Aktiengesellschaft, priority 2000, dated 2006).

pIC50: −log10 of the molar value. Counter-ions that a name gives are not always drawn. Bounds are passed on as bounds.

For this assay, the system named is A549 human lung epithelium cell line. Nature of the assay: RANTES production in response to TNF-α from A549 cells. The class given is cell-based. The settings on record: Homo sapiens, A549, A549 cells, 100 ng/ml TNF-α, read-out: Cellular activity grade (A549) (Cellular IC50). The procedure:
[The Measurement of RANTES Production in Response to TNF-α from A549 Cells]
(1) Preparation of A549 Cells
• The A549 human lung epithelium cell line (ATCC […]) was maintained in Dulbecco's modified Eagle's medium (D-MEM, Nikken Biomedical Institute) supplemented with 10% FCS (Gibco), 100 U/ml penicillin, 100 μg/ml streptomycin, and 2 mM glutamine (culture medium). Forty thousand (4×10^4) cells (80 μl/well) were seeded in each well of 96 well flat-bottom tissue culture plate (Falcon #3072). The plate was allowed to stand for 2 hrs, thus the cells were adhered to the bottom of each well. To the each well was added 10 μl vehicle (1% DMSO), serial dilutions of test compounds in 1% DMSO, or 5 nM Dexamethasone in 1% DMSO as a reference. The mixture (90 μl/well) was incubated for 1 hr at 37° C. After 1 hr, 1 μg/ml TNF-α (10 μl) in culture medium was added to the mixture to obtain 100 μl of reaction mixture. The reaction mixture was cultured for 24 hrs to stimulate the cells with 100 ng/ml TNF-α. Cells with vehicle without TNF-α stimulation were also prepared. (2) Measurement of RANTES Production • Then the concentration of RANTES released from the cells in the supernatants of each well was determined using a quantitative sandwich enzyme immunoassay technique. First, 2 μg/ml mouse anti-huRANTES mAb (R&D Systems, #mAb678) in PBS buffer (pH 7.4, 100 μl) was put in each well of 96-well NUNC fluoro plate (Nalge Nunc, New York USA) (Final 200 ng/well) and the plate was allowed to stand for overnight at 4° C. to be coated by the antibody. Each well of the plate was then washed with 350 μl wash buffer (0.05% Tween-20, 0.85% NaCl, and 25 mM Tris/HCl pH7.4) for three times. Blocking buffer containing 1% BSA (Sigma 99% pure, 100 g), 5% sucrose (Nacalai tesque, 99% pure, 500 g), and 0.02% azide (Nacalai tesque, 100%, 500 g) were added (200 μl) to each well and then the plate was allowed to stand for 4 hours to stabilize the coated antibody. Next, 50 μl supernatants of cell culture prepared in (1) above were put in each well of the 96-well NUNC fluoro plate with coated antibody. Recombinant Human RANTES (Pepro Tech, Inc. #300-06) was used as the standard for the determination of RANTES production (linear range between 1 and 10 ng/ml). Eu-labelled mouse anti-huRANES mAb (60 ng/ml: R&D Systems, #mAb278) in PBS supplemented by 1% BSA and 0.05% Tween 20 was added (50 μl) to each well. The reaction mixtures were incubated at room temperature for 4 hrs. After washing with wash buffer (0.05% Tween-20, 0.85% NaCl, and 25 mM Tris/HCl pH7.4, 350 μl/well) for 5 times with the use of a Sera Washer (Bio-Tech, #MW-96R), the enhancement solution (DELFIA, #1244-405, 100 μl/well) was added to each well. The plate was incubated for 10 minutes at room temperature with moderate shaking. Fluorescent intensity was measured using a DELFIA fluorimeter (Wallac). Excitation was performed at 340 nm and emission was measured at 615 nm. [The Measurement of TNF-α Production in Response to LPS from Peripheral Blood Mononuclear Cells (PBMC)] (1) Preparation of PBMC • Human PBMC were prepared by first obtaining blood from healthy donors and isolating the cells from the blood. The isolation was done by Ficoll gradient-centrifugation method using Ficoll Pacque (Pharmacia #17-1440-02). Within three hours from donation, the isolated PBMC was used. After three times washing with PBS, PBMC were resuspended with RPMI 1640 (Nikken BioMedical Institute) supplemented with 10% FCS (Gibco), 100 U/ml penicillin, 100 μg/ml streptomycin, and 2 mM glutamine (culture medium). The cells (1×10^5 in 150 μL/well) were seeded in each well of 96 well flat-bottom tissue culture plate (Falcon #3072). To the each well was added 20 μl vehicle (1% DMSO), serial dilutions of test compounds in 1% DMSO, or 250 nM Dexamethasone in 1% DMSO as a reference. The mixture (170 μl/well) was incubated for 1 hr at 37° C. After 1 hr, 20 ng/ml LPS (30 μl) in culture medium was added to the mixture to obtain 200 μl of reaction mixture. […]
`CC(C)(C)OC(=O)c1c(C2CCCNC2)cc(-c2ccccc2O)nc1N` (stereo not shown) [Example 9-1, tert-butyl 2-amino-6-(2-hydroxyphenyl)-4-(3-piperidinyl)nicotinate hydrochloride]: the pIC50 is 5.00 to 6.00.
As for `Nc1nc(-c2ccccc2O)cc(C2CCCNC2)c1C(=O)O` (stereo not shown) [Example 9-2, 2-amino-6-(2-hydroxyphenyl)-4-(3-piperidinyl)nicotinic acid hydrochloride], the negative logarithm of the IC50 (pIC50) was 5.00 to 6.00.
In the case of `Nc1nc(-c2c(O)cccc2OCC2CC2)cc(C2CCCNC2)c1C(=O)O` (stereo not shown) [Example 9-3, 2-amino-6-[2-(cyclopropylmethoxy)-6-hydroxyphenyl]-4-(3-piperidinyl)nicotinic acid hydrochloride], the pIC50 is less than 5.00.
For the compound `Cn1c(=O)[nH]c2nc(-c3ccccc3O)cc(C3CCCNC3)c2c1=O` (stereo not shown) [Example 10-1, 7-(2-hydroxy-phenyl)-3-methyl-5-piperidin-3-yl-1H-pyrido[2,3-d]pyrimidine-2,4-dione hydrochloride], the pIC50 is 5.00 to 6.00.
Take `Nc1nc(-c2ccccc2O)cc(C2CCCNC2)c1CO` (stereo not shown) [Example 11-1, 2-[6-amino-5-(hydroxymethyl)-4-(3-piperidinyl)-2-pyridinyl]phenol hydrochloride]: the pIC50 is greater than 6.00.
In the case of `Nc1nc(-c2c(O)cccc2F)cc(C2CCCNC2)c1CO` (stereo not shown) [Example 11-2, 2-[6-amino-5-(hydroxymethyl)-4-(3-piperidinyl)-2-pyridinyl]-3-fluorophenol hydrochloride], the pIC50 was greater than 6.00.
For the compound `Nc1nc(-c2ncccc2O)cc(C2CCCNC2)c1CO` (stereo not shown) [Example 11-3, 6′-amino-5′-(hydroxymethyl)-4′-3-piperidinyl)-2,2′-bipyridin-3-ol hydrochloride], the pIC50 is greater than 6.00.
For `Nc1nc(-c2ccccc2O)cc(C2=CCCNC2)c1CO` [Example 11-4, 2-[6′-amino-5′-(hydroxymethyl)-1,2,5,6-tetrahydro-3,4′-bipyridin-2′-yl]phenol hydrochloride], the pIC50 is greater than 6.00.
The same measure for `Nc1nc(-c2c(O)cccc2OCC2CC2)cc(C2CCCNC2)c1CO` (stereo not shown) [Example 12-1, 2-[6-amino-5-(hydroxymethyl)-4-(3-piperidinyl)-2-pyridinyl]-3-(cyclopropylmethoxy)phenol hydrochloride]: greater than 6.00; for `COCc1c(C2CCCNC2)cc(-c2ccccc2O)nc1N` (stereo not shown) [Example 13-1, 2-[6-amino-5-(methoxymethyl)-4-(3-piperidinyl)-2-pyridinyl]phenol hydrochloride]: greater than 6.00; for `CC(O)c1c(C2CCCNC2)cc(-c2ccccc2O)nc1N` (stereo not shown) [Example 15-1, 2-[6-amino-5-(1-hydroxyethyl)-4-(3-piperidinyl)-2-pyridinyl]phenol hydrochloride]: 5.00 to 6.00.
For the compound `Nc1nc(-c2ccccc2O)cc(C2CCCNC2)c1C(O)c1ccccc1` (stereo not shown) [Example 15-2, 2-[6-amino-5-[hydroxy(phenyl)methyl]-4-(3-piperidinyl)-2-pyridinyl]phenol hydrochloride], the pIC50 was 5.00 to 6.00.
Under `CC(=O)c1c(C2CCCNC2)cc(-c2ccccc2O)nc1N` (stereo not shown) [Example 15-3, 1-[2-amino-6-(2-hydroxyphenyl)4-(3-piperidinyl)-3-pyridinyl]ethanone hydrochloride] stands greater than 6.00.
Consider `Oc1ccccc1-c1cc(C2CCCNC2)c2cn[nH]c2n1` (stereo not shown) [Example 16-1, 2-(4-Piperidin-3-yl-1H-pyrazolo[3,4-b]pyridin-6-yl)-phenol hydrochloride], for which the pIC50 is 5.00 to 6.00.
In the case of `Oc1cccc(OCC2CC2)c1-c1cc(C2CCCNC2)c2c(n1)NCOC2` (stereo not shown) [Example 17-1, 3-(cyclopropylmethoxy)-2-[5-(3-piperidinyl)-1,4-dihydro-2H-pyrido[2,3-d][1,3]oxazin-7-yl]-phenol hydrochloride], the pIC50 was greater than 6.00.
Regarding `CC1OC(=O)Nc2nc(-c3ccccc3O)cc(C3CCCNC3)c21` (stereo not shown) [Example 18-3, hydrochloride], the pIC50 is 5.00 to 6.00.
